The text below walks through data of patent publication US20070072815A1, “Methods and kits to increase the efficiency of oligonucleotide-directed nucleic acid sequence alteration” (priority 2004, published 2007).

The subject of one data set is DLD-1-1 cells. In words: Cell viability / cell death by propidium iodide FACS. To be noted: HU or VP16 prior to electroporation, propidium iodide.
A further data set deals with DNA of DLD-1-1 cells. In words: Pulsed-field gel electrophoresis of DNA damage (double strand breaks). Format: cell-based. To be noted: HU 0.3, 1 or 5 mM; VP16 0.5, 1 or 3 μM; 24 hours. Here is the method: The cells are released by trypsinization and melted in the agarose inserts. The agarose inserts are incubated in 0.5M EDTA—1% N-laurosylsarcosine—proteinase K (1 mg/ml) at 50° C. for 48 hrs and then washed four times in TE buffer prior to loading on a 1% agarose gel (Pulse-Field Certified Agarose, Bio-Rad, Hercules, Calif.) and DNA separation by pulsed-field gel electrophoresis is carried out for 24 hrs (Bio-Rad, 120° field angle, 60 to 240s switch time, 4 V/cm). The gel is subsequently stained with ethidium bromide and analyzed with AlphaImager™ 2200. (Alpha Innotech Corp., San Leandro, Calif.).
The effects of MMS and bleomycin on oligonucleotide-directed gene alteration are determined as follows. DLD-1-1 cells are seeded in 100 mm dishes at 2×10^6 cells per plate and immediately treated with 0.2 μM MMS or 0.75 μM bleomycin. The cells are then grown for 24 hours, until approximately 50% confluent, and washed twice with PBS. A portion of each population of cells is removed for DNA analysis by pulsed-field electrophoresis, as described in Example 1. The correcting oligo EGFP/72NT (10 μg) is then added and the cells are electroporated as in Example 3. Cells are then analyzed to determine the percentage of cells with corrected eGFP genes as described in Example 3.

Data set [1] has as its system HYGeGFP fusion gene target in Saccharomyces cerevisiae strain LSY678. Put plainly: Hygromycin resistance gene correction in yeast LSY678. Format: cell-based. To be noted: synchronized with alpha factor and released into HU, specific time after release from G1/S border. The source says: An alternative model system to measure oligonucleotide-directed sequence alteration has been developed in the yeast Saccharomyces cerevisiae strain LSY678 (MATa leu 2-3, 112 trpl-1 ura 3-1 his 3-1, 15 ade2-1 can 1-100). The strain has integrated an HYGeGFP fusion gene target containing a single point mutation at base pair 137 in the coding region of the hygromycin gene, rendering it unable to confer resistance to the antibiotic. Oligonucleotide-directed sequence alteration can repair the mutation and restore hygromycin resistance. For example, in one experiment, LSY678 cells are synchronized with alpha factor and released, or synchronized with alpha factor and released into hydroxyurea (HU), prior to electroporation with a correcting oligonucleotide. The combination of alpha factor and HU increased correction efficiency 25-fold as compared to cells treated with neither agent, but only when oligonucleotide treatment is performed at a specific period of time after release from the G1/S border. See also U.S. patent application publication no. 20030207451.

The test system of data set [2] is α-galactosidase A (GLA) activity in Fabry's cell line DMN-1. In words: GLA activity in Fabry's cells after ODSA. The class given is cell-based, human.

Structures are written as SMILES. Entries after “also recorded” stand apart in the source; their conditions may differ.

Consider `NC(=O)NO` [HU, hydroxyurea], for which the effect on viability result in the data set on DLD-1-1 cells is “viability is moderately reduced”. Further, the “DNA double strand breaks” value with DNA of DLD-1-1 cells was “induce DSBs; also recorded: progressive increase in the amount of damaged DNA”. Besides, the “increase of correction efficiency compared to cells treated with neither agent” value in data set [1] was 25 fold. For the same molecule, the “increase in GLA activity compared to untreated cells” value in data set [2] (0.3 mM and 1 mM HU, after seven days) was “approximately three-fold”. For the same molecule, the “increase of GLA activity compared to untreated cells” value in data set [2] (cells synchronized by DTB, 1 mM HU prior to transfection with 49T/gg) is listed as “five-fold”.
